The text below walks through data of patent publication US12590091B2, “1H-pyrrolo[3,2-C]pyridine and 1H-pyrrolo[2,3-C]pyridine derivatives as TLR9 inhibitors for the treatment of fibrosis” (BRISTOL-MYERS SQUIBB COMPANY, priority 2020, dated 2026).

This experiment concerns the target T1, human TLR9 (Homo sapiens, UniProt Q9NR96).
T1 construct: host or cells: HEK-Blue cells
T1 sequence (Q9NR96 26-1032): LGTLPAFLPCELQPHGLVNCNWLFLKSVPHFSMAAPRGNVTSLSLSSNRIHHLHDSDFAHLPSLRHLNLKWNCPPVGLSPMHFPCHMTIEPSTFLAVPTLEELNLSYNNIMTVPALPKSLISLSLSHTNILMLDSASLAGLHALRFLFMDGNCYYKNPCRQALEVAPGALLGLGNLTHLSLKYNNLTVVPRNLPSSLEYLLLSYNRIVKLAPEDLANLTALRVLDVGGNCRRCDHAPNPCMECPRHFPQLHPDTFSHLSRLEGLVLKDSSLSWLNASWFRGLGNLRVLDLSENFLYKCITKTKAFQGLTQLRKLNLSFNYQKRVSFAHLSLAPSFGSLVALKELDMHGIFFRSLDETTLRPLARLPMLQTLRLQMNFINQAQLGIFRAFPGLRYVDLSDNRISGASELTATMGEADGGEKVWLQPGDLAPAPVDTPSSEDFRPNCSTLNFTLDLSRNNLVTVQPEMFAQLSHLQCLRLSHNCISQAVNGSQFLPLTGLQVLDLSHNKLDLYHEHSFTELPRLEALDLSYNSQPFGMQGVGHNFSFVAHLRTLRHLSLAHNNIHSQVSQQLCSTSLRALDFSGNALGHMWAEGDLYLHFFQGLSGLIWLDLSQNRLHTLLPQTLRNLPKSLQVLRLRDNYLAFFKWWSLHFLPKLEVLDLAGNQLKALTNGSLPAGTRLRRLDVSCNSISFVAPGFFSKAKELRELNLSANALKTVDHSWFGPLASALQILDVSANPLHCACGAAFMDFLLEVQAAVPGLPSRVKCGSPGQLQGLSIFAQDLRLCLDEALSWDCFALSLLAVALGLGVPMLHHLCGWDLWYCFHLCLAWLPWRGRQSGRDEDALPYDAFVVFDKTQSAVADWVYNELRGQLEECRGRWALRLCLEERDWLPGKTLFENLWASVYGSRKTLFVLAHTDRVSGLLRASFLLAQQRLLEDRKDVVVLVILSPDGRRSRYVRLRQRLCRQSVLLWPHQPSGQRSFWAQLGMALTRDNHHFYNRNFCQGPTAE
Put plainly: TLR9 inhibition reporter assay (HEK-Blue cells, SEAP reporter). Type of experiment: cell-based. The settings on record: HEK-Blue cells overexpressing human TLR9, stimulated with ODN2006 5 nM, 22 hour incubation. The protocol:
TLR7/8/9 Inhibition Reporter Assays
HEK-Blue™-cells (Invivogen) overexpressing human TLR7, TLR8 or TLR9 receptors were used for screening inhibitors of these receptors using an inducible SEAP (secreted embryonic alkaline phosphatase) reporter gene under the control of the IFN-β minimal promoter fused to five NF-κB and AP-1-binding sites. Briefly, cells are seeded into Greiner 384 well plates (15000 cells per well for TLR7, 20,000 for TLR8 and 25,000 for TLR9) and then treated with test compounds in DMSO to yield a final dose response concentration range of 0.05 nM-50 μM. […] After a 22 hour incubation at 37° C., 5% CO2, SEAP levels are determined with the addition of HEK-Blue™ Detection reagent (Invivogen), a cell culture medium that allows for detection of SEAP, according to manufacturer's specifications. The percent inhibition is determined as the % reduction in the HEK-Blue signal present in wells treated with agonist plus DMSO alone compared to wells treated with a known inhibitor.

The IC50 is the concentration that inhibits the measured activity by half. The low end stands for greater potency in that assay, the high end for weaker potency in that assay. `Cc1nc(-c2ccc(N3CCN(C(C)C)CC3)c(F)c2)cc2c1cc(-c1ccc(S(C)(=O)=O)cc1)n2C` [Example 12, 6-(3-Fluoro-4-(4-isopropylpiperazin-1-yl)phenyl)-1,4-dimethyl-2-(4-(methylsulfonyl)phenyl)-1H-pyrrolo[3,2-c]pyridine] yielded an IC50 of 0.036 µM.
On to `COc1ccc(-c2cc3cnc(-c4ccc(N5CCN(C(C)=O)CC5)cc4)cc3n2C)cc1OC` [Example 30, 1-(4-(4-(2-(3,4-dimethoxyphenyl)-1-methyl-1H-pyrrolo[3,2-c]pyridin-6-yl)phenyl)piperazin-1-yl) ethan-1-one], for which the IC50 amounted to 0.579 µM. This IC50 lies about 16-fold higher than the previous one.
In the case of `Cc1nc(-c2ccc(N3CCN(C(C)C)CC3)cc2)cc2c1cc(-c1cccc(S(C)(=O)=O)c1)n2C` [Example 39, 6-(4-(4-isopropylpiperazin-1-yl)phenyl)-1,4-dimethyl-2-(3-(methylsulfonyl)phenyl)-1H-pyrrolo[3,2-c]pyridine], the IC50 was 0.672 µM.
As for `Cc1nc(-c2ccc(N3CCN(CC(C)C)CC3)cc2)cc2c1cc(-c1cccc(S(C)(=O)=O)c1)n2C` [Example 40, 6-(4-(4-isobutylpiperazin-1-yl)phenyl)-1,4-dimethyl-2-(3-(methylsulfonyl)phenyl)-1H-pyrrolo[3,2-c]pyridine], the IC50 was found to be 0.098 µM.
The result for `Cc1nc(-c2ccc(N3CCN(C(C)C)CC3)cc2)cc2c1cc(-c1ccc(S(=O)(=O)C3CC3)cc1)n2C` [Example 42, 2-(4-(Cyclopropylsulfonyl)phenyl)-6-(4-(4-isopropylpiperazin-1-yl)phenyl)-1,4-dimethyl-1H-pyrrolo[3,2-c]pyridine] reads 0.346 µM; that for `Cc1nc(-c2ccc(N3CCN(CC(C)C)CC3)cc2)cc2c1cc(-c1ccc(S(=O)(=O)C3CC3)cc1)n2C` [Example 46, 2-(4-(cyclopropylsulfonyl)phenyl)-6-(4-(4-isobutylpiperazin-1-yl)phenyl)-1,4-dimethyl-1H-pyrrolo[3,2-c]pyridine], 0.213 µM; that for `Cc1nc(-c2ccc(N3CCN(C(C)C)CC3)cc2)cc2c1cc(-c1ccc(S(=O)(=O)N(C)C)cc1)n2C` [Example 49, 4-(6-(4-(4-isopropylpiperazin-1-yl)phenyl)-1,4-dimethyl-1H-pyrrolo[3,2-c]pyridin-2-yl)-N,N-dimethylbenzenesulfonamide], 6.76 µM.
The result for `Cc1nc(-c2ccc(N3CCN(C4COC4)CC3)cc2)cc2c1cc(-c1ccc(S(=O)(=O)N(C)C)cc1)n2C` [Example 50, 4-(1,4-dimethyl-6-(4-(4-(oxetan-3-yl)piperazin-1-yl)phenyl)-1H-pyrrolo[3,2-c]pyridin-2-yl)-N,N-dimethylbenzenesulfonamide] reads 2.41 µM.
Consider `COCCN1CCN(c2ccc(-c3cc4c(cc(-c5ccc(S(=O)(=O)N(C)C)cc5)n4C)c(C)n3)cc2)CC1` [Example 51, 4-(6-(4-(4-(2-methoxyethyl)piperazin-1-yl)phenyl)-1,4-dimethyl-1H-pyrrolo[3,2-c]pyridin-2-yl)-N,N-dimethylbenzenesulfonamide], for which the IC50 stood at 0.044 µM. This IC50 is about 55-fold lower than that of the compound before.
With `Cc1nc(-c2ccc(N3CCN(C4CCOC4)CC3)cc2)cc2c1cc(-c1ccc(S(=O)(=O)N(C)C)cc1)n2C` (centres unmarked) [Example 52, 4-(1,4-dimethyl-6-(4-(4-(tetrahydrofuran-3-yl)piperazin-1-yl)phenyl)-1H-pyrrolo[3,2-c]pyridin-2-yl)-N,N-dimethylbenzenesulfonamide] the figure was 0.202 µM.
With `Cc1nc(-c2ccc(N3CCN(C4CC4)CC3)cc2)cc2c1cc(-c1ccc(S(C)(=O)=O)cc1)n2C` [Example 62, 6-(4-(4-cyclopropylpiperazin-1-yl)phenyl)-1,4-dimethyl-2-(4-(methylsulfonyl)phenyl)-1H-pyrrolo[3,2-c]pyridine] the figure was 0.105 µM.
As for `Cc1nc(-c2ccc(N3CCN4CCCC4C3)cc2)cc2c1cc(-c1ccc(S(C)(=O)=O)cc1)n2C` (centres unmarked) [Example 63, 6-(4-(hexahydropyrrolo[1,2-a]pyrazin-2(1H)-yl)phenyl)-1,4-dimethyl-2-(4-(methylsulfonyl)phenyl)-1H-pyrrolo[3,2-c]pyridine], the 50% inhibitory concentration (IC50) is 0.146 µM.
Regarding `Cc1nc(-c2ccc(N3CC4CCC(C3)N4C(C)C)cc2)cc2c1cc(-c1ccc(S(C)(=O)=O)cc1)n2C` [Example 64, 6-(4-(8-isopropyl-3,8-diazabicyclo[3.2.1]octan-3-yl)phenyl)-1,4-dimethyl-2-(4-(methylsulfonyl)phenyl)-1H-pyrrolo[3,2-c]pyridine], the IC50 is 0.0064 µM. Against the preceding compound, the IC50 is about 23-fold lower.
`Cc1nc(-c2ccc(N3CCN4CCCC4C3)c(F)c2)cc2c1cc(-c1ccc(S(C)(=O)=O)cc1)n2C` (centres unmarked) [Example 65, 6-(3-fluoro-4-(hexahydropyrrolo[1,2-a]pyrazin-2(1H)-yl)phenyl)-1,4-dimethyl-2-(4-(methylsulfonyl)phenyl)-1H-pyrrolo[3,2-c]pyridine]: the IC50 was 0.136 µM.
The result for `COCCN1CCN(c2ccc(-c3cc4c(cc(-c5ccc(S(C)(=O)=O)cc5)n4C)c(C)n3)cc2F)CC1` [Example 66, 6-(3-fluoro-4-(4-(2-methoxyethyl)piperazin-1-yl)phenyl)-1,4-dimethyl-2-(4-(methylsulfonyl)phenyl)-1H-pyrrolo[3,2-c]pyridine] reads 0.136 µM.
`Cc1nc(-c2cccc(N3CCN(C(C)C)CC3)c2)cc2c1cc(-c1ccc(S(C)(=O)=O)cc1)n2C` [Example 67, 6-(3-(4-isopropylpiperazin-1-yl)phenyl)-1,4-dimethyl-2-(4-(methylsulfonyl)phenyl)-1H-pyrrolo[3,2-c]pyridine]: the IC50 was 0.025 µM.
The result for `Cc1nc(-c2cccc(N3CCN(C4CC4)CC3)c2)cc2c1cc(-c1ccc(S(C)(=O)=O)cc1)n2C` [Example 68, 6-(3-(4-cyclopropylpiperazin-1-yl)phenyl)-1,4-dimethyl-2-(4-(methylsulfonyl)phenyl)-1H-pyrrolo[3,2-c]pyridine] reads 0.299 µM; that for `Cc1nc(-c2ccc(N3CCN(C4CCOCC4)CC3)c(F)c2)cc2c1cc(-c1ccc(S(C)(=O)=O)cc1)n2C` [Example 71, 6-(3-fluoro-4-(4-(tetrahydro-2H-pyran-4-yl)piperazin-1-yl)phenyl)-1,4-dimethyl-2-(4-(methylsulfonyl)phenyl)-1H-pyrrolo[3,2-c]pyridine], 0.003 µM.
With `Cc1nc(-c2ccc(N3CCN(CC(C)C)CC3)c(F)c2)cc2c1cc(-c1ccc(S(C)(=O)=O)cc1)n2C` [Example 72, 6-(3-fluoro-4-(4-isobutylpiperazin-1-yl)phenyl)-1,4-dimethyl-2-(4-(methylsulfonyl)phenyl)-1H-pyrrolo[3,2-c]pyridine] the figure was 0.411 µM; with `Cc1nc(-c2ccc(N3CC4CCC(C3)N4CC(C)C)cc2)cc2c1cc(-c1ccc(S(C)(=O)=O)cc1)n2C` [Example 73, 6-(4-(8-isobutyl-3,8-diazabicyclo[3.2.1]octan-3-yl)phenyl)-1,4-dimethyl-2-(4-(methylsulfonyl)phenyl)-1H-pyrrolo[3,2-c]pyridine], 0.359 µM.
As to `Cc1nc(-c2cc(F)c(N3CCN(C4CCOCC4)CC3)cc2F)cc2c1cc(-c1ccc(S(C)(=O)=O)cc1)n2C` [Example 81, 6-(2,5-difluoro-4-(4-(tetrahydro-2H-pyran-4-yl)piperazin-1-yl)phenyl)-1,4-dimethyl-2-(4-(methylsulfonyl)phenyl)-1H-pyrrolo[3,2-c]pyridine], the half-maximal inhibitory concentration (IC50) came out at 0.67 µM.
The result for `Cc1nc(-c2ccc(N3CCN(C4CCOCC4)CC3)c(F)c2F)cc2c1cc(-c1ccc(S(C)(=O)=O)cc1)n2C` [Example 83, 6-(2,3-difluoro-4-(4-(tetrahydro-2H-pyran-4-yl)piperazin-1-yl)phenyl)-1,4-dimethyl-2-(4-(methylsulfonyl)phenyl)-1H-pyrrolo[3,2-c]pyridine] reads 2.3 µM; that for `Cc1nc(-c2cc(F)c(N3CCN(CC(C)C)CC3)c(F)c2)cc2c1cc(-c1ccc(S(C)(=O)=O)cc1)n2C` [Example 84, 6-(3,5-difluoro-4-(4-isobutylpiperazin-1-yl)phenyl)-1,4-dimethyl-2-(4-(methylsulfonyl)phenyl)-1H-pyrrolo[3,2-c]pyridine], 0.626 µM.
